US20140243210A1, “PURIFICATION OF IMMUNOGLOBULINS USING AFFINITY CHROMATOGRAPHY AND PEPTIDE LIGANDS” (priority 2005, published 2014)
“And” between values parts separate entries of the source, which are not always exact repeats. Equal values may be shown once. Read-outs that look alike come from different tables or passages of the source. No end group written: not given here.

Assays:
IgG = details: cited from earlier work
[1] = test system: Fc fragment of human IgG (HIgG); experiment: Secondary screening, batch format, competitive and non-competitive modes; type: binding; details: first round; for Bound %, Fc fragment, Non-competitive: 14C-Fc 1 μM in PBS; for Bound %, Fc fragment, Competitive: 14C-Fc 1 μM spiked in MEM (10% FCS, 5% TPB)
Procedure: (§1) The batch format was used in both competitive and non-competitive modes. The non-competitive mode involved screening using only pure target proteins in PBS buffer. For the competitive mode, target proteins were spiked into mammalian culture medium MEM (Minimum Essential Medium) containing 10% fetal calf serum (FCS) and 5% tryptose phosphate broth (TPB).
(§2) Two target proteins, the Fc fragment of human IgG (HIgG) and intact HIgG, were applied at a concentration of 1 μM. To carry out the secondary screening, 20 mg of the re-synthesized resins were swelled with 20% methanol for one hour, then washed thoroughly and equilibrated with PBS buffer. The beads were incubated with 400 μl of 1 μM 14C-Fc or 14C-IgG in the corresponding solutions in a 0.5 ml centrifuge filter with a 0.45 μm Durapore membrane (Millipore, Milford, Mass.) on a rotating plate for two hours. The particles were washed with PBS buffer for 15 min, and then sequentially washed for one hour each with 400 of: 1 M NaCl in PBS, then 2% acetic acid (AcOH) and 6 M guanidine chloride (GdnHCl). After centrifugation each solution was collected into scintillation fluid for radioactivity counting. The total unbound protein was determined by combining the counts of unbound protein and the wash of PBS. Finally, resins were suspended in scintillation liquid and counted for radioactivity in the same manner, allowing a total radioactivity balance.

intact HIgG = experiment: as above; type: binding, human; details: for Bound %, HIgG, Competitive / Bound %, HIgG, Non-competitive (Micro-BCA): first round; for Bound %, HIgG, Competitive: 14C-HIgG 1 μM spiked in MEM (10% FCS, 5% TPB), radiolabel extent 3.6%; for Bound %, HIgG, Non-competitive (Micro-BCA): pure HIgG 1 μM in PBS; for Competitive condition, Bound / Competitive condition, Unbound / Non-competitive, Bound / Non-competitive, Unbound: second round; for Competitive condition, Bound / Competitive condition, Unbound: HIgG in MEM, radiolabel extent 2.9%; for Non-competitive, Bound / Non-competitive, Unbound: HIgG in PBS
Procedure: as §1, §2

HIgG = experiment: Adsorption isotherm measurements, Langmuir model; type: binding, human
Procedure: Individual peptide sequences determined to bind the Fc fragment of HIgG in primary screening were synthesized directly onto Toyopearl AF-amino-650 M resin (Tosoh BioSciences, Montgomeryville, Pa.) at a substitution of 100 μmol/g resin (Peptides International, Louisville, Ky.). […] Adsorption isotherms were measured in a set of batch experiments at room temperature. All the experiments were performed at least in duplicate. Beads were washed thoroughly and equilibrated with PBS buffer. Centrifugal filters (0.5 ml) with 0.45 μm Durapore membranes (Millipore, Milford, Mass.) were used as adsorption vessels. Resins (10 mg of resin in each vessel) were then equilibrated overnight in PBS, pH 7.4 (Sigma Chemical, St. Louis, Mo.). After removing the PBS, 400 μl of HIgG solutions with concentrations from 0.05 to 10 mg/ml in PBS were added separately to the reaction vessels and incubated on an orbital shaker for 2 hours. The unbound HIgG fractions were collected by centrifugation and the protein concentrations were determined using a Micro-BCA Assay (Pierce, Rockford, Ill.) or by UV-absorbance at 280 nm. The amount of bound HIgG was calculated by mass balance. The data were fit to a Langmuir isotherm model (see Equation 2, below).
where, q=Concentration of bound adsorbate mg-protein/g-resin C=Concentration of free adsorbate mg-protein/ml-solution Kd=Dissociation constant mg/ml qm=Maximum capacity constant mg-protein/g-resin

[2] = Table 6, direct Langmuir fit, 0.1 meq/g, PBS pH 7.4
[3] = substitution 0.080 mmol/g, read-out: Kd
[4] = direct Langmuir fit, PBS pH 7.4, room temperature, peptides 0.1 meq/g, read-out: Kd, Langmuir
[5] = direct Langmuir fit, PBS pH 7.4, peptides 0.1 meq/g
[6] = double reciprocal curve, PBS pH 7.4, room temperature, peptides 0.1 meq/g, read-out: Kd, DR curve
[7] = double reciprocal curve, PBS pH 7.4, peptides 0.1 meq/g

Substance: (RTY)4K2KG [TG19318 (PAM)]
- Capacity (IgG; Epoxy-activated Eupergit C30N support): 25 mg/ml mg/ml gel

Substance: EPIHRSTLTALL (not fully specified) [literature peptide ligand on Amino-NuGel (Hoffman LaRoche)]
- Capacity (IgG; Amino-NuGel support, IgG source culture): 320 μg/g μg/g gel

Substance: HANGFL (not fully specified (C-terminus)) [hexapeptide ligand on Toyopearl resin]
- Bound %, Fc fragment, Non-competitive [1]: 10.23%
- Bound %, Fc fragment, Competitive [1]: 25.64%
- Bound %, HIgG, Competitive (intact HIgG): 5.58%
- Bound %, HIgG, Non-competitive (Micro-BCA) (intact HIgG): 10.52%

Substance: HDVFHT (not fully specified (C-terminus)) [hexapeptide ligand on Toyopearl resin]
- Competitive condition, Bound (intact HIgG): 8.55%
- Competitive condition, Unbound (intact HIgG): 91.45%

Substance: HEILYW (not fully specified (C-terminus)) [hexapeptide ligand on Toyopearl resin]
- Bound %, Fc fragment, Non-competitive [1]: 18.01%
- Bound %, Fc fragment, Competitive [1]: 3.20%
- Bound %, HIgG, Competitive (intact HIgG): 5.50%
- Bound %, HIgG, Non-competitive (Micro-BCA) (intact HIgG): 9.16%

Substance: HFDKGF (not fully specified (C-terminus)) [hexapeptide ligand on Toyopearl resin]
- Bound %, Fc fragment, Non-competitive [1]: 12.95%
- Bound %, Fc fragment, Competitive [1]: 4.28%
- Bound %, HIgG, Competitive (intact HIgG): 6.01%
- Bound %, HIgG, Non-competitive (Micro-BCA) (intact HIgG): 10.66%

Substance: HIQLDG (not fully specified (C-terminus)) [hexapeptide ligand on Toyopearl resin]
- Competitive condition, Bound (intact HIgG): 10.03%
- Competitive condition, Unbound (intact HIgG): 89.97%

Substance: HIWA (not fully specified (C-terminus))
- Competitive condition, Bound (intact HIgG): 12.87%
- Competitive condition, Unbound (intact HIgG): 87.13%
- Non-competitive, Bound (intact HIgG): 7.90%
- Non-competitive, Unbound (intact HIgG): 92.10%

Substance: HLKWYA (not fully specified (C-terminus)) [hexapeptide ligand on Toyopearl resin]
- Competitive condition, Bound (intact HIgG): 23.47%
- Competitive condition, Unbound (intact HIgG): 76.53%

Substance: HPWYVT (not fully specified (C-terminus)) [hexapeptide ligand on Toyopearl resin]
- Competitive condition, Bound (intact HIgG): 26.96%
- Competitive condition, Unbound (intact HIgG): 73.04%

Substance: HRPKIF [HRPLIF]
- Bound %, Fc fragment, Non-competitive [1]: 21.46%
- Bound %, Fc fragment, Competitive [1]: 24.48%
- Bound %, HIgG, Competitive (intact HIgG): 4.51%
- Bound %, HIgG, Non-competitive (Micro-BCA) (intact HIgG): 11.20%

Substance: HVHYYW [hexapeptide ligand on Toyopearl resin, 0.1 meq/g]
- qm (HIgG; [2]): 129.0 mg/g
- Competitive condition, Unbound (intact HIgG): 56.73%
- Non-competitive, Bound (intact HIgG): 55.49%
- Non-competitive, Unbound (intact HIgG): 44.51%

Substance: HVWQLK (not fully specified (C-terminus)) [hexapeptide ligand on Toyopearl resin]
- Competitive condition, Bound (intact HIgG): 15.05%
- Competitive condition, Unbound (intact HIgG): 84.95%

Substance: HWGPTK (not fully specified (C-terminus)) [hexapeptide ligand on Toyopearl resin]
- Competitive condition, Bound (intact HIgG): 19.93%
- Competitive condition, Unbound (intact HIgG): 80.07%
- Non-competitive, Bound (intact HIgG): 14.39%
- Non-competitive, Unbound (intact HIgG): 85.61%

Substance: HWIDPL (not fully specified (C-terminus)) [hexapeptide ligand on Toyopearl resin]
- Competitive condition, Bound (intact HIgG): 19.91%
- Competitive condition, Unbound (intact HIgG): 80.09%
- Non-competitive, Bound (intact HIgG): 9.03%
- Non-competitive, Unbound (intact HIgG): 90.97%

Substance: HWRGWV [Ac-HWRGWV, acetylated HWRGWV on resin, 0.080 mmol/g]
- qm (HIgG; substitution 0.080 mmol/g): 130 mg/g and 130.8 mg/g
- Kd (HIgG; [3]): 3.8 µM

Substance: HWRGWV [hexapeptide ligand on Toyopearl AF-amino-650 M resin; 0.1 meq/g unless another substitution is stated]
- Kd (HIgG; [4]): 1.33 µM
- qm, Langmuir (HIgG; [5]): 50.0 mg/g
- Kd (HIgG; [6]): 2.8 µM
- qm, DR curve (HIgG; [7]): 54.8 mg/g
- qm (HIgG; substitution 0.022 mmol/g): 158.1 mg/g
- Kd (HIgG; substitution 0.022 mmol/g, read-out: Kd): 30 µM
- qm (HIgG; substitution 0.040 mmol/g): 147.8 mg/g
- Kd (HIgG; substitution 0.040 mmol/g, read-out: Kd): 20.3 µM
- qm (HIgG; substitution 0.080 mmol/g): 130 mg/g and 131.8 mg/g
- Kd (HIgG; [3]): 7.25 µM
- qm (HIgG; substitution 0.10 mmol/g (different synthesis batch)): 133.6 mg/g
- Kd (HIgG; substitution 0.10 mmol/g (different synthesis batch), read-out: Kd): 10.4 µM
- qm (HIgG; substitution 0.22 mmol/g): 136.8 mg/g
- Kd (HIgG; substitution 0.22 mmol/g, read-out: Kd): 2.58 µM
- qm (HIgG; substitution 0.55 mmol/g): 137.6 mg/g
- Kd (HIgG; substitution 0.55 mmol/g, read-out: Kd): 0.947 µM

Substance: HYFKFD [hexapeptide ligand on Toyopearl resin, 0.1 meq/g]
- qm (HIgG; [2]): 126.8 mg/g
- Kd (HIgG; Table 6, direct Langmuir fit, 0.1 meq/g, PBS pH 7.4, read-out: Kd): 11.4 µM
- Competitive condition, Unbound (intact HIgG): 56.74%
- Non-competitive, Bound (intact HIgG): 69.31%
- Non-competitive, Unbound (intact HIgG): 30.69%

Substance: HYGLGW (not fully specified (C-terminus)) [hexapeptide ligand on Toyopearl resin]
- Bound %, Fc fragment, Non-competitive [1]: 19.75%
- Bound %, Fc fragment, Competitive [1]: 4.91%
- Bound %, HIgG, Competitive (intact HIgG): 14.48%
- Bound %, HIgG, Non-competitive (Micro-BCA) (intact HIgG): 17.89%

Substance: HYIDAK (not fully specified (C-terminus)) [hexapeptide ligand on Toyopearl resin]
- Competitive condition, Bound (intact HIgG): 8.64%
- Competitive condition, Unbound (intact HIgG): 91.36%

Substance: KGEA (not fully specified (C-terminus))
- Competitive condition, Bound (intact HIgG): 7.34%
- Competitive condition, Unbound (intact HIgG): 92.66%
- Non-competitive, Bound (intact HIgG): 6.08%
- Non-competitive, Unbound (intact HIgG): 93.92%

Substance: KLQWVH (Immunoglobulin binding peptide sequence) [from KLQMVX, with the substitution of M with W and X with H]
- Competitive condition, Bound (intact HIgG): 12.15%
- Competitive condition, Unbound (intact HIgG): 87.85%

Substance: KRGFYY (Immunoglobulin binding peptide sequence) [combination of KRXXXX, KXXGX and aromatic amino acids F and YY]
- Competitive condition, Bound (intact HIgG): 17.27%
- Competitive condition, Unbound (intact HIgG): 82.73%

Substance: Mannosylerythritol lipid
- Capacity (IgG; Poly(2-hydroxyethyl methacrylate) support): 106 mg/g mg/g gel

Substance: Protein A: protein A immobilized by the CNBr method to 4% cross-linked agarose beads (Amersham Biosciences); positive control [reference compound]
- Capacity (IgG; 4% cross-link agarose): 20 mg/ml mg/ml moist gel

Substance: WHWRKR [reference compound]
- Kd (HIgG; [4]): 1.39 µM
- qm, Langmuir (HIgG; [5]): 62.4 mg/g
- Kd (HIgG; [6]): 2.47 µM
- qm, DR curve (HIgG; [7]): 81.9 mg/g

Substance: truncation of the subunit GFRKYLHFRRHLL of a multiple antigenic peptide (MAP) (Immunoglobulin binding peptide sequence)
- qm (HIgG; [2]): 157.9 mg/g
- Competitive condition, Unbound (intact HIgG): 59.13%
